ChEMBL document CHEMBL4316596, “Antimicrobial Peptides with High Proteolytic Resistance for Combating Gram-Negative Bacteria” (J Med Chem, 2019)
In brackets after ≈: the same amount, converted by molar mass.

Assays:
Klebsiella pneumoniae [1] = assay: Antimicrobial activity against Klebsiella pneumoniae after 24 hrs by NCCLS-protocol based assay; assay type: functional
Pseudomonas aeruginosa [2] = assay: Bactericidal activity against Pseudomonas aeruginosa CICC 21625 clinical isolates incubated for 4 hrs followed by culture spread on agar plates and cultured overnight; assay type: functional; conditions: CICC 21625, 4 h, read-out: MBC>99.9
Pseudomonas aeruginosa [3] = assay: Antimicrobial activity against Pseudomonas aeruginosa ATCC 27853 after 24 hrs by NCCLS-protocol based assay; assay type: functional; conditions: ATCC 27853, 24 h
Salmonella typhimurium [4] = assay: Antimicrobial activity against Salmonella typhimurium C7731 after 24 hrs by NCCLS-protocol based assay; assay type: functional, Salmonella enterica subsp. enterica serovar Typhimurium; conditions: Salmonella enterica, C7731, 24 h
Acinetobacter baumannii [5] = assay: Bactericidal activity against Acinetobacter baumannii incubated for 4 hrs followed by culture spread on agar plates and cultured overnight; assay type: functional; conditions: read-out: MBC>99.9
Escherichia coli [6] = assay: Antimicrobial activity against Escherichia coli ATCC 25922 after 24 hrs by NCCLS-protocol based assay; assay type: functional; conditions: ATCC 25922, 24 h
Pseudomonas aeruginosa [7] = assay: Antimicrobial activity against Pseudomonas aeruginosa CICC 21630 clinical isolates after 24 hrs by NCCLS-protocol based assay; assay type: functional; conditions: CICC 21630, 24 h
Salmonella typhimurium [8] = assay: Antimicrobial activity against Salmonella typhimurium ATCC 14028 after 24 hrs by NCCLS-protocol based assay; assay type: functional, Salmonella enterica subsp. enterica serovar Typhimurium; conditions: Salmonella enterica, ATCC 14028, 24 h
Escherichia coli [9] = assay: Antimicrobial activity against Escherichia coli UB1005 after 24 hrs by NCCLS-protocol based assay; assay type: functional; conditions: UB1005, 24 h
Pseudomonas aeruginosa [10] = assay: Bactericidal activity against Pseudomonas aeruginosa 26305 clinical isolates incubated for 4 hrs followed by culture spread on agar plates and cultured overnight; assay type: functional; conditions: Pseudomonas aeruginosa, 26305, 4 h; read-out: MBC>99.9
Pseudomonas aeruginosa [11] = assay: Antimicrobial activity against Pseudomonas aeruginosa 25349 clinical isolates after 24 hrs by NCCLS-protocol based assay; assay type: functional; conditions: Pseudomonas aeruginosa, 25349, 24 h
Pseudomonas aeruginosa [12] = assay: Bactericidal activity against Pseudomonas aeruginosa ATCC 27853 incubated for 4 hrs followed by culture spread on agar plates and cultured overnight; assay type: functional; conditions: ATCC 27853, 4 h, read-out: MBC>99.9
Pseudomonas aeruginosa [13] = assay: Antimicrobial activity against Pseudomonas aeruginosa 26305 clinical isolates after 24 hrs by NCCLS-protocol based assay; assay type: functional; conditions: Pseudomonas aeruginosa, 26305, 24 h
Escherichia coli [14] = assay: Antimicrobial activity against Escherichia coli K88 after 24 hrs by NCCLS-protocol based assay; assay type: functional; conditions: K88, 24 h
[15] = Antimicrobial activity against Salmonella pullorum C7913 after 24 hrs by NCCLS-protocol based assay; assay type: functional, Salmonella enterica subsp. enterica serovar Pullorum; conditions: Salmonella enterica, C7913, 24 h
Pseudomonas aeruginosa [16] = assay: Bactericidal activity against Pseudomonas aeruginosa 25349 clinical isolates incubated for 4 hrs followed by culture spread on agar plates and cultured overnight; assay type: functional; conditions: Pseudomonas aeruginosa, 25349, 4 h; read-out: MBC>99.9
Acinetobacter baumannii [17] = assay: Antimicrobial activity against Acinetobacter baumannii after 24 hrs by NCCLS-protocol based assay; assay type: functional
Pseudomonas aeruginosa [18] = assay: Bactericidal activity against Pseudomonas aeruginosa CICC 21630 clinical isolates incubated for 4 hrs followed by culture spread on agar plates and cultured overnight; assay type: functional; conditions: CICC 21630, 4 h, read-out: MBC>99.9
Escherichia coli [19] = assay: Antimicrobial activity against Escherichia coli K99 after 24 hrs by NCCLS-protocol based assay; assay type: functional; conditions: K99, 24 h
Escherichia coli [20] = assay: Antimicrobial activity against Escherichia coli 078 after 24 hrs by NCCLS-protocol based assay; assay type: functional; conditions: Escherichia coli, 078, 24 h
Escherichia coli [21] = assay: Bactericidal activity against Escherichia coli 078 incubated for 4 hrs followed by culture spread on agar plates and cultured overnight; assay type: functional; conditions: Escherichia coli, 078, 4 h; read-out: MBC>99.9
Pseudomonas aeruginosa [22] = assay: Antimicrobial activity against Pseudomonas aeruginosa PAO1 after 24 hrs by NCCLS-protocol based assay; assay type: functional; conditions: PAO1, 24 h
[23] = Bactericidal activity against Salmonella pullorum C7913 incubated for 4 hrs followed by culture spread on agar plates and cultured overnight; assay type: functional, Salmonella enterica subsp. enterica serovar Pullorum; conditions: Salmonella enterica, C7913, 4 h; read-out: MBC>99.9
Klebsiella pneumoniae [24] = assay: Bactericidal activity against Klebsiella pneumoniae incubated for 4 hrs followed by culture spread on agar plates and cultured overnight; assay type: functional; conditions: read-out: MBC>99.9
Escherichia coli [25] = assay: Bactericidal activity against Escherichia coli ATCC 25922 incubated for 4 hrs followed by culture spread on agar plates and cultured overnight; assay type: functional; conditions: ATCC 25922, 4 h, read-out: MBC>99.9
Escherichia coli [26] = assay: Bactericidal activity against Escherichia coli UB1005 incubated for 4 hrs followed by culture spread on agar plates and cultured overnight; assay type: functional; conditions: UB1005, 4 h, read-out: MBC>99.9
Pseudomonas aeruginosa [27] = assay: Antimicrobial activity against Pseudomonas aeruginosa CICC 21625 clinical isolates after 24 hrs by NCCLS-protocol based assay; assay type: functional; conditions: CICC 21625, 24 h
Escherichia coli [28] = assay: Bactericidal activity against Escherichia coli K88 incubated for 4 hrs followed by culture spread on agar plates and cultured overnight; assay type: functional; conditions: K88, 4 h, read-out: MBC>99.9
Escherichia coli [29] = assay: Bactericidal activity against Escherichia coli K99 incubated for 4 hrs followed by culture spread on agar plates and cultured overnight; assay type: functional; conditions: K99, 4 h, read-out: MBC>99.9
Salmonella typhimurium [30] = assay: Bactericidal activity against Salmonella typhimurium ATCC 14028 incubated for 4 hrs followed by culture spread on agar plates and cultured overnight; assay type: functional, Salmonella enterica subsp. enterica serovar Typhimurium; conditions: Salmonella enterica, ATCC 14028, 4 h; read-out: MBC>99.9
Pseudomonas aeruginosa [31] = assay: Bactericidal activity against Pseudomonas aeruginosa PAO1 incubated for 4 hrs followed by culture spread on agar plates and cultured overnight; assay type: functional; conditions: PAO1, 4 h, read-out: MBC>99.9
Salmonella typhimurium [32] = assay: Bactericidal activity against Salmonella typhimurium C7731 incubated for 4 hrs followed by culture spread on agar plates and cultured overnight; assay type: functional, Salmonella enterica subsp. enterica serovar Typhimurium; conditions: Salmonella enterica, C7731, 4 h; read-out: MBC>99.9

| Compound | MIC95 (Klebsiella pneumoniae [1]) | MBC (Pseudomonas aeruginosa [2]) | MIC95 (Pseudomonas aeruginosa [3]) | MIC95 (Salmonella typhimurium [4]) | MBC (Acinetobacter baumannii [5]) | MIC95 (Escherichia coli [6]) | MIC95 (Pseudomonas aeruginosa [7]) | MIC95 (Salmonella typhimurium [8]) | MIC95 (Escherichia coli [9]) | MBC (Pseudomonas aeruginosa [10]) | MIC95 (Pseudomonas aeruginosa [11]) | MBC (Pseudomonas aeruginosa [12]) | MIC95 (Pseudomonas aeruginosa [13]) | MIC95 (Escherichia coli [14]) | MIC95 [15] | MBC (Pseudomonas aeruginosa [16]) | MIC95 (Acinetobacter baumannii [17]) | MBC (Pseudomonas aeruginosa [18]) | MIC95 (Escherichia coli [19]) | MIC95 (Escherichia coli [20]) | other results |
| --- | --- | --- | --- | --- | --- | --- | --- | --- | --- | --- | --- | --- | --- | --- | --- | --- | --- | --- | --- | --- | --- |
| NCC[C@H](O)C(=O)N[C@@H]1C[C@H](N)[C@@H](O[C@H]2O[C@H](CN)[C@@H](O)[C@H](O)[C@H]2O)[C@H](O)[C@H]1O[C@H]1O[C@H](CO)[C@@H](O)[C@H](N)[C@H]1O [AMIKACIN] | 0.0625 µM (≈ 0.0366 µg/mL) | 0.25 µM (≈ 0.146 µg/mL) | 0.125 µM (≈ 0.0732 µg/mL) | 0.0625 µM (≈ 0.0366 µg/mL) | 0.125 µM (≈ 0.0732 µg/mL) | 0.0625 µM (≈ 0.0366 µg/mL) | 0.125 µM (≈ 0.0732 µg/mL) | 0.125 µM (≈ 0.0732 µg/mL) | 0.0625 µM (≈ 0.0366 µg/mL) | > 64 µM | 0.25 µM (≈ 0.146 µg/mL) | 0.25 µM (≈ 0.146 µg/mL) | > 64 µM | 0.0625 µM (≈ 0.0366 µg/mL) | 0.0625 µM (≈ 0.0366 µg/mL) | 0.25 µM (≈ 0.146 µg/mL) | 0.0625 µM (≈ 0.0366 µg/mL) | 0.125 µM (≈ 0.0732 µg/mL) | 0.0625 µM (≈ 0.0366 µg/mL) | 0.0625 µM (≈ 0.0366 µg/mL) | MBC (Escherichia coli [21]): 0.0625 µM (≈ 0.0366 µg/mL); MIC95 (Pseudomonas aeruginosa [22]): 0.0625 µM (≈ 0.0366 µg/mL); MBC [23]: 0.0625 µM (≈ 0.0366 µg/mL); MBC (Klebsiella pneumoniae [24]): 0.125 µM (≈ 0.0732 µg/mL); MBC (Escherichia coli [25]): 0.125 µM (≈ 0.0732 µg/mL); MBC (Escherichia coli [26]): 0.125 µM (≈ 0.0732 µg/mL); MIC95 (Pseudomonas aeruginosa [27]): 0.125 µM (≈ 0.0732 µg/mL); MBC (Escherichia coli [28]): 0.0625 µM (≈ 0.0366 µg/mL); MBC (Escherichia coli [29]): 0.125 µM (≈ 0.0732 µg/mL); MBC (Salmonella typhimurium [30]): 0.125 µM (≈ 0.0732 µg/mL); MBC (Pseudomonas aeruginosa [31]): 0.125 µM (≈ 0.0732 µg/mL); MBC (Salmonella typhimurium [32]): 0.125 µM (≈ 0.0732 µg/mL) |
| CN[C@H](CC(C)C)C(=O)N[C@H]1C(=O)N[C@@H](CC(N)=O)C(=O)N[C@H]2C(=O)N[C@H]3C(=O)N[C@H](C(=O)N[C@H](C(=O)O)c4cc(O)cc(O)c4-c4cc3ccc4O)[C@H](O)c3ccc(c(Cl)c3)Oc3cc2cc(c3O[C@@H]2O[C@H](CO)[C@@H](O)[C@H](O)[C@H]2O[C@H]2C[C@](C)(N)[C@H](O)[C@H](C)O2)Oc2ccc(cc2Cl)[C@H]1O [VANCOMYCIN] | 16 µM (≈ 23.2 µg/mL) | > 64 µM | > 64 µM | 8 µM (≈ 11.6 µg/mL) | 2 µM (≈ 2.9 µg/mL) | 8 µM (≈ 11.6 µg/mL) | 32 µM (≈ 46.4 µg/mL) | 8 µM (≈ 11.6 µg/mL) | 16 µM (≈ 23.2 µg/mL) | > 64 µM | 64 µM (≈ 92.8 µg/mL) | > 64 µM | 64 µM (≈ 92.8 µg/mL) | 2 µM (≈ 2.9 µg/mL) | 8 µM (≈ 11.6 µg/mL) | > 64 µM | 2 µM (≈ 2.9 µg/mL) | 64 µM (≈ 92.8 µg/mL) | 4 µM (≈ 5.8 µg/mL) | 4 µM (≈ 5.8 µg/mL) | MBC (Escherichia coli [21]): 4 µM (≈ 5.8 µg/mL); MIC95 (Pseudomonas aeruginosa [22]): 8 µM (≈ 11.6 µg/mL); MBC [23]: 8 µM (≈ 11.6 µg/mL); MBC (Klebsiella pneumoniae [24]): 32 µM (≈ 46.4 µg/mL); MBC (Escherichia coli [25]): 16 µM (≈ 23.2 µg/mL); MBC (Escherichia coli [26]): 16 µM (≈ 23.2 µg/mL); MIC95 (Pseudomonas aeruginosa [27]): 64 µM (≈ 92.8 µg/mL); MBC (Escherichia coli [28]): 4 µM (≈ 5.8 µg/mL); MBC (Escherichia coli [29]): 4 µM (≈ 5.8 µg/mL); MBC (Salmonella typhimurium [30]): 8 µM (≈ 11.6 µg/mL); MBC (Pseudomonas aeruginosa [31]): 16 µM (≈ 23.2 µg/mL); MBC (Salmonella typhimurium [32]): 16 µM (≈ 23.2 µg/mL) |
